{"source": "paper PMC4739506", "about": "(Nature chemistry, 2013)", "system": "P. falciparum 3D7 parasites (schizonts)", "experiment": "YnMyr treatment of schizonts: morphology and life cycle progression", "type": "cell-based", "details": "up to 50 μM, 5 h"}
{"molecule": "C#CCCCCCCCCCCCC(=O)O", "note": "[YnMyr, tetradec-13-ynoic acid]", "values": [{"measurement": "changes in morphology or life cycle progression", "value": "no changes were observed in morphology or life cycle progression"}]}
